Test results: patent publication EP0839146B1, “PIPERAZINE DERIVATIVES AND THEIR USE AS 5-HT1A ANTAGONISTS” (AMERICAN HOME PRODUCTS CORPORATION, priority 1995, dated 1997)

Columns and labels:
α1 receptors = assay: α1 binding affinity (procedure of Marrow et al)
Method: The compounds were tested for α1 binding affinity (column 3) by the procedure of A.L. Marrow et al, Mol. Pharmacol., 1986, 29, 321.

5-HT1A receptor [1] = target: T1, 5-HT1A receptor (Rattus norvegicus, UniProt P19327); assay: 5-HT1A binding affinity in rat hippocampal membrane homogenate (method of Alexander and Wood); set-up: in rat hippocampal membrane homogenate; from tissue; host or cells: rat hippocampus (membrane homogenate)
T1 sequence (P19327 1-422): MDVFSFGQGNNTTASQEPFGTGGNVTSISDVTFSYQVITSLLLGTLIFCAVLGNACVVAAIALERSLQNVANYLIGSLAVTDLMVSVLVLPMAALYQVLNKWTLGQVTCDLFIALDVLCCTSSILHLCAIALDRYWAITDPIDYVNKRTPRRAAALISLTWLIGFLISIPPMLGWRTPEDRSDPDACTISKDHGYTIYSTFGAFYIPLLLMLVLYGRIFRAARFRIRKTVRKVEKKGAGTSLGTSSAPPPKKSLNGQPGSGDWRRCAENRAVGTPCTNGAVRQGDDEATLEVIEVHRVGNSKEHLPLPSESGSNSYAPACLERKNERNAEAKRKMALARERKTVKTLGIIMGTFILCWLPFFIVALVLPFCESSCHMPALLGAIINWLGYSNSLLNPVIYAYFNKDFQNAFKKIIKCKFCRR
Method: The compounds were tested for 5-HT1A binding affinity (column 2) in rat hippocampal membrane homogenate by the method of B.S. Alexander and M.D. Wood, J. Pharm. Pharmacol., 1988, 40, 888-891.

5-HT1A receptor [2] = target: T1, 5-HT1A receptor; assay: 5-HT1A receptor antagonist activity: antagonism of the 8-OH-DPAT syndrome in rats after oral pretreatment; assay type: in vivo; set-up: from tissue; host or cells: whole animal (rat), in vivo
Method: 5-HT1A receptor antagonist activity (columns 5 and 6) is assessed by the ability of the selective 5-HT1A receptor agonist, 8-OH-DPAT, to induce 'the 8-OH-DPAT syndrome' in rats characterised by extended flat body posture, forepaw treading and hyperlocomotion. The 8-OH-DPAT syndrome is scored as present (definite syndrome response) or absent (equivocal or no syndrome response) during the period 0-5 min following intravenous (i.v.) administration of the test agonist via a lateral tail vein.
A range of doses, on a logarithmic scale and encompassing the expected ED50, were chosen for the test agonist following preliminary evaluation. […]
Test antagonists were administered orally (p.o.) 60 min, before i.v. administration of 8-OH-DPAT. ED50 values for 8-OH-DPAT were determined for the different pretreatment groups using the sequential up/down procedure as described above.
The response to the selective 5-HT1A receptor agonist, 8-OH-DPAT, is represented as an ED50 value for induction of the 8-OH-DPAT syndrome, which is determined using the sequential up/down analysis following intravenous administration. 5-HT1A antagonist activity is determined by the ability of the test compound to antagonise the response to 8-OH-DPAT, i.e. to increase the ED50 for induction of the 8-OH-DPAT syndrome compared with vehicle pretreatment. […]

**Q.** Which IC50 (α1 receptors) does the source give for `C[C@H](CN(C(=O)C1CCCCC1)c1ccccn1)N1CCN(c2cccc3c2OCCO3)CC1` [Example A1] here?
**A.** Its IC50 is 625 nM.

**Q.** What about the “Ratio 5HT1A/α1” value (5-HT1A receptor [1]; binding selectivity, ratio of 5-HT1A binding to α1-binding) of the same molecule?
**A.** The value was 145.

**Q.** And the IC50 (5-HT1A receptor [1]; rat hippocampal membrane homogenate)?
**A.** The IC50 was 4.3 nM.

**Q.** What about the “5-HT1A-antagonist Ratio (ED50 antagonist @ 3mg/kg po)/ED50 vehicle” value (5-HT1A receptor [2]; ED50 of i.v. 8-OH-DPAT after test compound 3 mg/kg p.o. divided by ED50 after vehicle) of the same molecule?
**A.** The value was 20.

**Q.** And the “5-HT1A-antagonist activity MED” value (5-HT1A receptor [2]; antagonist p.o. 60 min before i.v. 8-OH-DPAT, lowest dose at which ED50 confidence limits of antagonist and vehicle groups do not overlap)?
**A.** The value was 1 mg/kg po.
